# Reference: patent US8367328B2, “Method for synthesizing DNA” (Takara Bio Inc., priority 1998, dated 2013)
# Target: T1, Pfu DNA Polymerase II (Pyrococcus furiosus, UniProt P81409+P81412)
# T1 construct: made in house; host or cells: Escherichia coli JM109/pFU1001 (FERM BP-5579)
# T1 sequence (P81409 1-1263): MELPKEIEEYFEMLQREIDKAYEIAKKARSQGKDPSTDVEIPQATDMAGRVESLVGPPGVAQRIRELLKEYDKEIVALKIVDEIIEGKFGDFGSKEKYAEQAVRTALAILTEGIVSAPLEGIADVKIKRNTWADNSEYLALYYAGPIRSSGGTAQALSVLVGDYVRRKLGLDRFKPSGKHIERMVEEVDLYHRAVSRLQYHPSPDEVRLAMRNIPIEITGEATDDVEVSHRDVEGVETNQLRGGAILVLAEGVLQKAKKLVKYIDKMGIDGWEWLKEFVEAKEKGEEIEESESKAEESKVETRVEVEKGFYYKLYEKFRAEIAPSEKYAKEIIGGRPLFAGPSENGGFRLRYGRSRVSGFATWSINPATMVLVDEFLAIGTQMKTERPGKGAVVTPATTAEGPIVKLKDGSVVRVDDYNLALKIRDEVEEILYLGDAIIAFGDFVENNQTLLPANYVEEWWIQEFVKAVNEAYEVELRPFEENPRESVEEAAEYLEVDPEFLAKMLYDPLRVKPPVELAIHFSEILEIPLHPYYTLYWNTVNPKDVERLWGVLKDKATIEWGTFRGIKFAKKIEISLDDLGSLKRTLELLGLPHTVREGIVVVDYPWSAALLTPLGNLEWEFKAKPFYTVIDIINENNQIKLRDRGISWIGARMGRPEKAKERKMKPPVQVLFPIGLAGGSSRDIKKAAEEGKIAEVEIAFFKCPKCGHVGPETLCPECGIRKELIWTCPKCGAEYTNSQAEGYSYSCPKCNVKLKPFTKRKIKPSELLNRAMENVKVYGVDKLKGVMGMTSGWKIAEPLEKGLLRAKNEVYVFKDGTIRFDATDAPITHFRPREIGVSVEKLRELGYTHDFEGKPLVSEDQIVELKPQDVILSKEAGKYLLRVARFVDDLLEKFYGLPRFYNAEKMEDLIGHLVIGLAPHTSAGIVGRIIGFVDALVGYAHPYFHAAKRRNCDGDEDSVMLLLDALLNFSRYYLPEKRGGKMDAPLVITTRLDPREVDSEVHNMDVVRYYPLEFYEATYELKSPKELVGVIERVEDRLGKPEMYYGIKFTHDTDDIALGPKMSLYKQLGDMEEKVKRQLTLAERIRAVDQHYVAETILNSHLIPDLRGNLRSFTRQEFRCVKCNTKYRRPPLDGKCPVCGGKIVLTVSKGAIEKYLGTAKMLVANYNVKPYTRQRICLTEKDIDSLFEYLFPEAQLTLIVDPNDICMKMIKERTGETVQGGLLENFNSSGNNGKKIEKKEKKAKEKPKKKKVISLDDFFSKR
# T1 sequence (P81412 1-613): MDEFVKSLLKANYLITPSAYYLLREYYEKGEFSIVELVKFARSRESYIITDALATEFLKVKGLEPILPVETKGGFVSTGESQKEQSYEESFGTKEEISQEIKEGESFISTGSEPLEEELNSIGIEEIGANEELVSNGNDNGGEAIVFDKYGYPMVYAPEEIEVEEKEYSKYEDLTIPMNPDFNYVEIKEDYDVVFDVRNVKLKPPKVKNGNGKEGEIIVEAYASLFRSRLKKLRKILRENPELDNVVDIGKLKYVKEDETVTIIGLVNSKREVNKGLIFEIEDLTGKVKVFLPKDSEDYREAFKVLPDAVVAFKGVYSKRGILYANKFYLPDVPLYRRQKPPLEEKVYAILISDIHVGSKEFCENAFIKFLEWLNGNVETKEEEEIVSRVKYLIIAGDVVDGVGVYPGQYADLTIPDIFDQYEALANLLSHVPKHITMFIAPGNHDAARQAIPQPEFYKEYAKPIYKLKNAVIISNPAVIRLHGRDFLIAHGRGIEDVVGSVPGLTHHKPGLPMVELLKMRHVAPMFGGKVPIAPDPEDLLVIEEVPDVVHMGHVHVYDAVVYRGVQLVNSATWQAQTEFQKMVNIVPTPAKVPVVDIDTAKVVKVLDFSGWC
# Assay: PCR with Pfu DNA Polymerase II in the presence of acidic substances (λDNA template)
# Format: biochemical
# Conditions: 0.5 kb fragment; 100 pg λDNA, primers λ1/λ2, 25 cycles 98°C 5 s–66°C 15 s; amount added 1 μg
# Protocol: A reaction mixture comprising λDNA as a template, primers λ1 and λ3 as a primer pair, and Pfu DNA Polymerase II as DNA polymerase was prepared, and PCR was carried out. The composition of the reaction mixture is as follows.
# 10 mM Tris-hydrochloric acid (pH 9.2), 75 mM potassium chloride, 6 mM magnesium chloride, 0.4 mM each of dATP, dCTP, dGTP and dTTP, 0.01% BSA, 1.25 U of Pfu DNA Polymerase II, 500 pg of λDNA, and 5 pmol each of primers λ1 and λ3 (a final volume being 25 μl). […]
# Using the sulfated-fucose-containing Polysaccharide-F obtained in Example 6 described above, dextran sulfate powder (manufactured by Onco), or sodium alginate (100 to 150 centipoises, manufactured by Wako Pure Chemicals), the effects of these acidic substances on the activity of Pfu DNA Polymerase II were examined. A reaction mixture comprising λDNA as a template, primers λ1 and λ2 as a primer pair, and Pfu DNA Polymerase II as DNA polymerase was prepared, and PCR was carried out. The composition of the reaction mixture is as follows.
# (§1) 10 mM Tris-hydrochloric acid, pH 9.2, 75 mM potassium chloride, 6 mM magnesium chloride, 0.4 mM each of dATP, dCTP, dGTP and dTTP, 0.01% BSA, 1.25 U of Pfu DNA Polymerase II, 100 pg of λDNA, and 5 pmol each of primers λ1 and λ2 (a final volume being 25 μl). Further, 10 ng of the sulfated-fucose-containing polysaccharide-F, 10 ng of dextran sulfate powder, or 1 μg of sodium alginate was respectively added to the above reaction mixture.
# (§2) The reaction in 25 cycles was carried out for each of these reaction mixtures, wherein one cycle of reaction comprises a process consisting of 98° C., 5 seconds—66° C., 15 seconds. Thereafter, 5 μl of the resulting reaction mixture was subjected to electrophoresis on 1% agarose gel containing ethidium bromide in an amount of 0.00005%, whereby an amplified fragment was confirmed.
# Further, studies were conducted on the effects of the sulfated-fucose-containing polysaccharide-F obtained in Example 6 described above, the sulfated-fucose-containing polysaccharide-U obtained in Example 7 described above, or sodium polyglutamate (manufactured by Sigma) as an acidic substance. A reaction mixture for PCR was prepared in the same manner as described above except for changing the amount of template λDNA to 500 pg and the primer pairs to primers λ1 and λ3. Five nanograms of the sulfated-fucose-containing polysaccharide-F, 5 ng, 10 ng, 20 ng or 30 ng each of the sulfated-fucose-containing polysaccharide-U, or 250 ng, 500 ng, 750 ng or 1000 ng each of sodium polyglutamate was respectively added to the above reaction mixture.
# as §2, with “reaction” for “reaction in 25 cycles”, “in 30 cycles,” for “for each of these reaction mixtures,”, “After the termination of the reaction,” for “Thereafter,”
# Using the sulfated-fucose-containing polysaccharide-F obtained in Example 6 described above, the effects on the activity of Pfu DNA Polymerase II were examined. A reaction mixture comprising λDNA as a template, primers λ1 and λ2 as a primer pair, and Pfu DNA Polymerase II as DNA polymerase was prepared, and PCR was carried out. The composition of the reaction mixture is as follows.
# as §1, with “500” for “100”, “polysaccharide-F” for “polysaccharide-F, 10 ng of dextran sulfate powder, or 1 μg of sodium alginate”
# The reaction in 30 cycles was carried out for each of these reaction mixtures, wherein one cycle of reaction comprises a process consisting of 98° C., 5 seconds—66° C., 15 seconds. […]
substance,measurement,value
sodium alginate,Amplification Results,+ (Amplification being observed)
